What is called solubility is the concentration that dissolves in the medium under given conditions. Lower therefore signals little dissolved substance.

Data set [1] has as its system mPTP. The data set can be described thus: mPTP activity assay in isolated rat liver mitochondria (Ca2+ retention, Fluo5N, FLIPR). In kind it is biochemical. To be noted: for mPTP Rat liver pIC50*: isolated rat liver mitochondria, average value from multiple experiments (n ≥ 2). The text has this:
Pharmacological inhibition or modulation of the mPTP can be measured in well characterised ‘Ca^2+ retention’ assays performed in isolated mitochondria. In vitro, isolated mitochondria rapidly sequester exogenous Ca^2+ until the intramitochondrial Ca^2+ concentration reaches the threshold for mPTP activation. Once the pore is activated, mitochondrial integrity is compromised and the stored Ca^2+ is released. The distribution of Ca^2+ between extra- and intra-mitochondrial compartments can be measured in real time with the use of membrane-impermeant Ca^2+ sensitive fluorescent dyes. Depending on the configuration of the assay, inhibition or modulation of the mPTP either delays the opening of the pore or increases the concentration of Ca^2+ required to induce mPTP opening.
mPTP activity was measured in mitochondria freshly isolated from female Sprague Dawley (250 to 300 gram) rat livers using the following method. Cervical dislocation was performed on the rat. The liver was then perfused in-situ with ˜40 ml cold Dulbecco's Phosphate Buffered Saline (DPBS) prior to dissection and transferred into 30 ml Isolation Buffer (250 mM Sucrose, 10 mM KCl, 1 mM EGTA, 1 mM EDTA, 25 mM HEPES, adjusted to pH 7.5 with 1 M NaOH). Each lobe of the liver was then removed from the buffer, minced using tweezers and a scalpel into ˜5 mm pieces then transferred into a 50 ml Potterton dounce homogenization tube on ice containing 30 ml ice-cold centrifugation buffer (300 mM Trehalose, 25 mM HEPES, 1 mM EGTA, 1 mM EDTA, 10 mM KCl, adjusted to pH 7.5 with 1 M NaOH and supplemented with 0.1% bovine serum albumin (BSA) and complete protease inhibitor cocktail (one tablet of inhibitor per 50 mls of buffer). Homogenisation was carried out using a teflon pestle at 1800 rpm. The slurry was centrifuged at 800 g for 10 min at 4° C., then the supernatant centrifuged at 10,000 g for 10 min. The pellet was washed once with FLIPR assay buffer (75 mM Mannitol, 25 mM Sucrose, 5 mM Potassium Phosphate Monobasic, 20 mM Tris base, 100 mM KCl, 0.1% BSA adjusted to pH 7.4 with 5 M HCl) centrifuged again, then resuspended in FLIPR assay buffer to a concentration of 8.8 mg/ml protein.
Test compounds (10 mM stock in DMSO) were serially diluted in DMSO in half log steps to generate 10 test concentrations (final concentrations in assay 30 μM to 1 nM). An intermediate dilution of 5 μl DMSO samples into 247 μl FLIPR assay buffer was carried out prior to transfer of 5 μl into duplicate wells of a 384 well polypropylene assay plate. Control wells were 0.5% (v/v) DMSO and 5 μM cyclosporin A.
A stock mitochondria/Fluo5N assay solution was prepared in 5.6 ml FLIPR assay buffer (at RT) supplemented with succinate disodium salt (10 mM), rotenone (1 μM), Fluo5N pentapotassium salt (2 μM) and 1 ml mitochondria suspension, then transferred (15 μl) into the assay plate containing test compounds and incubated for 10 min at RT. Assay plates were then transferred to a FLIPR Tetra plate reader (Molecular Devices). Dye fluorescence was then measured every 3 sec for a total of 10 min. After 12 sec, a 2.5 μl bolus of CaCl2 (75 μM) was added from a source plate containing 675 μM CaCl2 in FLIPR assay buffer. IC50 values for test compounds were calculated using the fluorescence value collected at the 10 min timepoint with % inhibition calculated using the DMSO control and cyclosporin A values as […] respectively.

A short description of data set [2]: PBS solubility. Type of data set: physicochemical. To be noted: aqueous buffer, kinetic from dmso stock; PBS pH 7.4, 2 hr at 25° C. The protocol:
(§1) Test compounds were prepared as 10 mM stocks in DMSO and 15 μl samples transferred in duplicate into 1.5 mL glass flat bottom vials (BioTech Solutions). Fasted state simulated intestinal fluid (FaSSIF) or PBS (pH 7.4) was added to each vial to final volume of 500 μl. One PTFE encapsulated stir stick (V&P Scientific) was placed in each vial before sealing with PTFE/SIL plugs (BioTech Solutions). Vials were shaken at 1100 rpm for 2 hr at 25° C. Samples were then filtered through MultiScreen Solvinert filter plates (Millipore) via vacuum filtration. Aliquots of filtrate (5 μl) plus 5 μl DMSO were diluted in 490 μl 50% acetonitrile in water containing internal standard. The filtrate was analysed and quantified against a standard of known concentration using LC-MS/MS. Solubility values of the test compound and control compound were calculated as follows: [Sample]=(Area ratiosample*INJ VOL STD*DFsample*[STD])/(Area ratio STD*INJ VOLsample).

Data set [3] is described as follows: Hepatocyte clearance assay, rat. To be noted: cryopreserved primary rat hepatocytes, average value from two experiments, read-out: Rat heps intrinsic clearance (CLint). In kind it is in vitro ADME. As for the experimental part: (§2) In vitro clearance studies were performed in primary rat and human hepatocytes (BioIVT). Vials of cryopreserved rat or human hepatocytes were thawed in a 37° C. water bath for 2 min. Cells were transferred into thawing medium (Williams' Medium E containing 30% Percoll, 1× GlutaMAX-1, 15 mM HEPES, 5% fetal bovine serum (FBS), 4 μg/ml insulin, 1 μM dexamethasone), centrifuged at 100 g for 10 min then resuspended in culture medium (Leibovitz's L-15 Medium) at a concentration of 0.5×10^6 viable cells/mL (number of viable cells assessed using AO/PI staining). Hepatocytes (198 μL) were transferred into wells of a 96-well non-coated plate and placed in a 37° C. incubator for 10 min. Test compound solutions were prepared from 10 mM stocks in DMSO, diluted to 100 μM in 50% (v/v in water) acetonitrile. Test compound samples (2 μl) were added to each well of hepatocytes and incubated at 37° C. Samples (25 μl) were collected at t=0, 15, 30, […] and 120 min, mixed with 6 volumes (150 μl) of acetonitrile containing internal standard (100 nM alprazolam, 200 nM caffeine and 100 nM tolbutamide), vortexed for 5 min and centrifuged for 45 min at 3220 g. An aliquot of supernatant (100 μL) was diluted with 100 μL ultra-pure water, and the mixture was used for LC/MS/MS analysis. All incubations were performed in duplicate. Peak areas were determined from extracted ion chromatograms. The slope value, k, was determined by linear regression of the natural logarithm of the remaining percentage of the parent drug vs. incubation time curve. The in vitro half-life (in vitro t1/2) was determined from the slope value: in vitro t1/2=0.693/k. Conversion of the in vitro t1/2 (in min) into the in vitro intrinsic clearance (in vitro CLint, in μL/min/1×10^6 cells) was done using the following equation (mean of duplicate determinations): • in vitro CLint=kV/N • V=incubation volume (0.2 mL) • N=number of hepatocytes per well (0.1×10^6 cells). Microsomal Clearance Assay

The nature of data set [4]: Microsomal clearance assay, rat liver microsomes. In kind it is in vitro ADME. The settings on record: average value from two experiments, read-out: Rat liver microsomes intrinsic clearance (CLint). As for the experimental part:
The microsomal stability of test compounds was evaluated using rat liver microsomes (BioIVT) with and without the cofactors nicotinamide adenine dinucleotide phosphate (NADPH) and uridine-diphosphate-glucuronic acid (UDPGA). Reactions were performed in a final volume of 250 μl pre-warmed (37° C.) 100 mM phosphate buffer containing 5 mM MgCl2, 0.025 mg/ml alamethicin, and 0.5 mg/ml rat liver microsomes. NADPH and UDPGA were included at 1 mM and 2 mM respectively, where appropriate. Reactions were started with the addition of 1 μM (final concentration) test compound. Verapamil was used as the positive control. Solutions were incubated in a water bath at 37° C. and aliquots collected at 0.5, 5, 15, 30 and 60 min. Reactions were stopped by the addition of 5 volumes of cold acetonitrile with internal standards (200 nM caffeine and 100 nM tolbutamide). Samples were centrifuged at 3220 g for 40 min. An aliquot of supernatant was diluted 1:1 In ultra-pure H20, then used for LC-MS/MS analysis. Peak areas were determined from extracted ion chromatograms. The slope value, k, was determined by linear regression of the natural logarithm of the remaining percentage of the parent drug vs. incubation time curve. The in vitro half-life (in vitro t1/2) was determined from the slope value: in vitro t1/2=0.693/k. Conversion of the in vitro t1/2 (min) into the in vitro intrinsic clearance (in vitro CLint, in μL/min/mg protein) was done using the following equation (mean of duplicate determinations): in vitro Clint=(0.693/t1/2)*(Vol of incubation (μl)/amount of protein (mg)).

A short description of data set [5]: Hepatocyte clearance assay, human. In kind it is in vitro ADME. To be noted: cryopreserved primary human hepatocytes, average value from two experiments, read-out: Human heps intrinsic clearance (CLint). As for the experimental part:
as §2

Data set [6] in a line: FaSSIF solubility. Type of data set: physicochemical. The settings on record: kinetic from dmso stock, Fasted state simulated intestinal fluid, 2 hr at 25° C. As for the experimental part:
as §1

In brackets after ≈: the same amount, converted by molar mass.

As for `O=C(/C=C/c1ccc2cn[nH]c2c1)NC1CCc2ccccc21` (stereo not drawn) [Example 2, (E)-N-(2,3-dihydro-1H-inden-1-yl)-3-(1H-indazol-6-yl)acrylamide], the “mPTP Rat liver pIC50*” value in data set [1] is 7.6. In data set [2], this compound showed a solubility at 2 h of 10 µM (≈ 3.03 µg/mL). The results for the hepatocyte CLint at 1 µM in data set [3] and in data set [5] were 33 µL/min/1e6 cells and 14 µL/min/1e6 cells, respectively. In addition, the microsomal CLint at 1 µM in data set [4] is 59 µL/min/mg.
In the case of `O=C(/C=C/c1ccc2cn[nH]c2c1)NC1CCc2c(F)cccc21` (stereo not drawn) [Example 8, (E)-N-(4-fluoro-2,3-dihydro-1H-inden-1-yl)-3-(1H-indazol-6-yl)acrylamide], in data set [1], the “mPTP Rat liver pIC50*” value is listed as 6.9. This compound also came in with a solubility at 2 h in data set [2] of 6.3 µM (≈ 2.02 µg/mL). Also, the microsomal CLint at 1 µM in data set [4] came to 41 µL/min/mg.
For `O=C(/C=C/c1ccc2cn[nH]c2c1)NC1CCc2cccc(F)c21` (stereo not drawn) [Example 5, (E)-N-(7-fluoro-2,3-dihydro-1H-inden-1-yl)-3-(1H-indazol-6-yl)acrylamide], in that order: 6.3, 2.5 µM (≈ 0.803 µg/mL) and 55 µL/min/mg.
As to `Cc1ccc(F)c(C)c1NC(=O)/C=C/c1ccc2cn[nH]c2c1` [Example 28, (E)-N-(3-fluoro-2,6-dimethylphenyl)-3-(1H-indazol-6-yl)acrylamide], in data set [1] (comparison among Example compounds, in words), the “activity in the rat liver mitochondria assay” value was “highest activity”. For the same compound, in data set [1], the “mPTP Rat liver pIC50*” value came out at 8.1. The hepatocyte CLint at 1 µM in data set [5] amounted to 21 µL/min/1e6 cells.
For `Cc1c(F)cccc1NC(=O)/C=C/c1cnc2cn[nH]c2c1` [Example 34, (E)-N-(3-fluoro-2-methylphenyl)-3-(1H-pyrazolo[4,3-b]pyridin-6-yl)acrylamide], in data set [1], the “mPTP Rat liver pIC50*” value is recorded as 6.0. The solubility at 2 h in data set [2] was 13 µM (≈ 3.85 µg/mL). Further, the microsomal CLint at 1 µM in data set [4] amounted to 51 µL/min/mg.
In the case of `O=C(/C=C/c1ccc2cn[nH]c2c1F)NC1CCc2ccccc21` (stereo not drawn) [Example 9, (E)-N-(2,3-dihydro-1H-inden-1-yl)-3-(7-fluoro-1H-indazol-6-yl)acrylamide], in data set [1], the “mPTP Rat liver pIC50*” value is recorded as 7.2. Also, the solubility at 2 h is 0.4 µM (≈ 0.129 µg/mL) in data set [2] and 11 µM (≈ 3.53 µg/mL) in data set [6]. Further, the hepatocyte CLint at 1 µM in data set [3] turned out to be 61 µL/min/1e6 cells.
Regarding `Cc1c(F)cccc1NC(=O)/C=C/c1ccc2cn[nH]c2c1C` [Example 1, (E)-N-(3-fluoro-2-methylphenyl)-3-(7-methyl-1H-indazol-6-yl)acrylamide], the “mPTP Rat liver pIC50*” value in data set [1] is 7.1. For the same compound, the results for the solubility at 2 h in data set [2] and in data set [6] were 0.11 µM (≈ 0.034 µg/mL) and 2 µM (≈ 0.619 µg/mL), respectively. In data set [4], the microsomal CLint at 1 µM was 118 µL/min/mg.
`C[C@@H]1CCCC[C@H]1NC(=O)/C=C/c1ccc2cn[nH]c2c1` (racemic) [Example 4, (E)-3-(1H-indazol-6-yl)-N-((1R,2R)-2-methylcyclohexyl)acrylamide]: the “mPTP Rat liver pIC50*” value in data set [1] came out at 6.3. This compound registered a solubility at 2 h in data set [2] of 5.2 µM (≈ 1.47 µg/mL). In data set [3], the hepatocyte CLint at 1 µM was 68 µL/min/1e6 cells. The microsomal CLint at 1 µM in data set [4] was found to be 39 µL/min/mg.
For `O=C(/C=C/c1ccc2cn[nH]c2c1)NC1CCc2cc(F)ccc21` (stereo not drawn) [Example 7, (E)-N-(5-fluoro-2,3-dihydro-1H-inden-1-yl)-3-(1H-indazol-6-yl)acrylamide], the “mPTP Rat liver pIC50*” value in data set [1] is 7.2. The same compound gave a solubility at 2 h in data set [2] of 4.1 µM (≈ 1.32 µg/mL). Moreover, in data set [4], the microsomal CLint at 1 µM turned out to be 38 µL/min/mg.
Consider `O=C(/C=C/c1cc(Cl)c2cn[nH]c2c1)NC1CCc2ccccc21` (stereo not drawn) [Example 13, (E)-3-(4-chloro-1H-indazol-6-yl)-N-(2,3-dihydro-1H-inden-1-yl)acrylamide], for which the “mPTP Rat liver pIC50*” value in data set [1] amounted to 7.0. This compound registered a solubility at 2 h in data set [6] of 4 µM (≈ 1.35 µg/mL). Moreover, in data set [3], the hepatocyte CLint at 1 µM was determined as 95 µL/min/1e6 cells.
Turning to `O=C(/C=C/c1ccc2cn[nH]c2c1)Nc1ccccc1CN1CC(F)C1` [Example 31, (E)-N-(2-((3-fluoroazetidin-1-yl)methyl)phenyl)-3-(1H-indazol-6-yl)acrylamide], the “mPTP Rat liver pIC50*” value in data set [1] is recorded as 6.3. The same compound yielded a solubility at 2 h in data set [2] of 59 µM (≈ 20.7 µg/mL). The hepatocyte CLint at 1 µM turned out to be 101 µL/min/1e6 cells in data set [3] and 36 µL/min/1e6 cells in data set [5].

These data come from US12497359B2, “Acrylamide derivatives” (NRG Therapeutics Ltd, priority 2020, dated 2025).
